The series can be described thus: Plasma pharmacokinetics of lenvatinib, carboplatin and paclitaxel. It is filed as in vivo. The conditions noted are these: human, intravenous, mean±s.d.

Structures are written as SMILES.

As usually defined, the clearance is a measure of how efficiently the substance is removed, as volume per time. By Vd is commonly meant the apparent volume that relates the amount in the body to the concentration in plasma or blood. A low value points to little distribution into tissue. The term half-life denotes how long it takes for the measured level to halve. High values mean slow decline, low ones rapid decline.

`CC(=O)O[C@H]1C(=O)[C@@]2(C)[C@H]([C@H](OC(=O)c3ccccc3)[C@]3(O)C[C@H](OC(=O)[C@H](O)[C@@H](NC(=O)c4ccccc4)c4ccccc4)C(C)=C1C3(C)C)[C@]1(OC(C)=O)CO[C@@H]1C[C@@H]2O` [Paclitaxel, reference compound] had a clearance (CL, paclitaxel 200 mg m^−2, with lenvatinib 4 mg BID (n=6)) of 240 mL/min. Moreover, the Vd (Vss, paclitaxel 200 mg m^−2, with lenvatinib 4 mg BID (n=6)) turned out to be 69.1 ± 27.7 L. Also, the half-life (t1/2, paclitaxel 200 mg m^−2, with lenvatinib 4 mg BID (n=6)) is 6.65 ± 0.39 h.

Source of the values: article PMC3738144 (British Journal of Cancer, 2013).
